ChEMBL document CHEMBL4043168, “The design and SAR of a novel series of 2-aminopyridine based LRRK2 inhibitors” (Bioorg Med Chem Lett, 2017)

Experiments:
[1] = biological target: Ribosomal protein S6 kinase alpha-1 (Homo sapiens) (UniProt Q15418); test: Inhibition of RSK1 domain2 conserved Lys2 (DLKPSNILYVDESGNPECLR) in human PBMC at 0.1 uM
[2] = biological target: T1, Mitogen-activated protein kinase kinase kinase 6 (Homo sapiens) (UniProt O95382); test: Inhibition of MAP3K6 conserved Lys1 (IAIKEIPER) in human PBMC at 1 uM
T1 sequence (whole entry): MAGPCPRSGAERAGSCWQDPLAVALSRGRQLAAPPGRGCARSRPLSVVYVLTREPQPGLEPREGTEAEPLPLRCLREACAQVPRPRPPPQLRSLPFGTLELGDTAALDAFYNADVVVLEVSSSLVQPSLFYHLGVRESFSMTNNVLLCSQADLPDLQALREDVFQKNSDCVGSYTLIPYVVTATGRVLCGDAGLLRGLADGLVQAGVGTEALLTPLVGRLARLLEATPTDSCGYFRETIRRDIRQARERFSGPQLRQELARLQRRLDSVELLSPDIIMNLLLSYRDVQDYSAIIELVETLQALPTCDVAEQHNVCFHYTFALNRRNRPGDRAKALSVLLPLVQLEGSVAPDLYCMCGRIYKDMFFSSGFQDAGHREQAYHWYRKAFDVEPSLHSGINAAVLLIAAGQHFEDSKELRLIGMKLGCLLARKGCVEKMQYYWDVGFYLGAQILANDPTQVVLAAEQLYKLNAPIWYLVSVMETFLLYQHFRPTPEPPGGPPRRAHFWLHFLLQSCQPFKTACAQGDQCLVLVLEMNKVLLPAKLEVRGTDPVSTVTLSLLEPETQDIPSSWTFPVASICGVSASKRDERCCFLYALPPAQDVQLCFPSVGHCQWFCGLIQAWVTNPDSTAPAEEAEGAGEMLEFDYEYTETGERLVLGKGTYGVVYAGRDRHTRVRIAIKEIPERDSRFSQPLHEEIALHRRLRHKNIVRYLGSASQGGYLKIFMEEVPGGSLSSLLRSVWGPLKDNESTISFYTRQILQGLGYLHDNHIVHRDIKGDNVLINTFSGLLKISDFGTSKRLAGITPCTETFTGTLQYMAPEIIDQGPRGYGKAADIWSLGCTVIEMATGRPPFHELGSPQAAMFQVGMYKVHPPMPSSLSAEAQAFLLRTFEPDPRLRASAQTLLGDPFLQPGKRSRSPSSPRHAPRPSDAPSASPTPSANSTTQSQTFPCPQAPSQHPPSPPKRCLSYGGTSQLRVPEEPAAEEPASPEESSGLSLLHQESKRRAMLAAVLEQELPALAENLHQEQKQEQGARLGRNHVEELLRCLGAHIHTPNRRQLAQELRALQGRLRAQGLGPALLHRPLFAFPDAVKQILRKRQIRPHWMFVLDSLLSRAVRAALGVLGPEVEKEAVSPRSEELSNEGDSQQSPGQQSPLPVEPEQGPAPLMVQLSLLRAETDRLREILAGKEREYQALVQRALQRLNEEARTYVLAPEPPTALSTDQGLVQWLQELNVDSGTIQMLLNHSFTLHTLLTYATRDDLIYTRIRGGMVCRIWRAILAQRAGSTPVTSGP

[3] = biological target: Tyrosine-protein kinase Fyn (Homo sapiens) (UniProt P06241); test: Inhibition of FYN activation Loop (QGAKFPIKWTAPEAALYGR) in human PBMC at 0.1 uM
[4] = biological target: Kinase suppressor of Ras 2 (Homo sapiens) (UniProt Q6VAB6); test: Inhibition of KSR2 activation Loop (SKNVFYDNGK) in human PBMC at 0.1 uM
[5] = biological target: T1, Mitogen-activated protein kinase kinase kinase 6 (Homo sapiens); test: Inhibition of MAP3K6 conserved Lys2 (DIKGDNVLINTFSGLLK) in human PBMC at 0.1 uM
[6] = biological target: Mitogen-activated protein kinase kinase kinase 11 (Homo sapiens) (UniProt Q16584); test: Inhibition of MLK3 conserved Lys2 (DLKSNNILLLQPIESDDMEHK) in human PBMC at 0.1 uM
[7] = biological target: Ribosomal protein S6 kinase alpha-2 (Homo sapiens) (UniProt Q15349); test: Inhibition of RSK3 domain1 conserved Lys2 (DLKPENILLDEEGHIKITDFGLSK) in human PBMC at 0.1 uM
[8] = biological target: Serine/threonine-protein kinase SIK2 (Homo sapiens) (UniProt Q9H0K1); test: Inhibition of QIK conserved Lys1 (EVAIKIIDK) in human PBMC at 0.1 uM
[9] = biological target: T2, Phosphatidylinositol 4,5-bisphosphate 3-kinase catalytic subunit delta isoform (Homo sapiens) (UniProt O00329); test: Inhibition of PIK3CD ATP binding site (TKVNWLAHNVSKDNRQ) in human PBMC at 1 uM
T2 sequence (whole entry): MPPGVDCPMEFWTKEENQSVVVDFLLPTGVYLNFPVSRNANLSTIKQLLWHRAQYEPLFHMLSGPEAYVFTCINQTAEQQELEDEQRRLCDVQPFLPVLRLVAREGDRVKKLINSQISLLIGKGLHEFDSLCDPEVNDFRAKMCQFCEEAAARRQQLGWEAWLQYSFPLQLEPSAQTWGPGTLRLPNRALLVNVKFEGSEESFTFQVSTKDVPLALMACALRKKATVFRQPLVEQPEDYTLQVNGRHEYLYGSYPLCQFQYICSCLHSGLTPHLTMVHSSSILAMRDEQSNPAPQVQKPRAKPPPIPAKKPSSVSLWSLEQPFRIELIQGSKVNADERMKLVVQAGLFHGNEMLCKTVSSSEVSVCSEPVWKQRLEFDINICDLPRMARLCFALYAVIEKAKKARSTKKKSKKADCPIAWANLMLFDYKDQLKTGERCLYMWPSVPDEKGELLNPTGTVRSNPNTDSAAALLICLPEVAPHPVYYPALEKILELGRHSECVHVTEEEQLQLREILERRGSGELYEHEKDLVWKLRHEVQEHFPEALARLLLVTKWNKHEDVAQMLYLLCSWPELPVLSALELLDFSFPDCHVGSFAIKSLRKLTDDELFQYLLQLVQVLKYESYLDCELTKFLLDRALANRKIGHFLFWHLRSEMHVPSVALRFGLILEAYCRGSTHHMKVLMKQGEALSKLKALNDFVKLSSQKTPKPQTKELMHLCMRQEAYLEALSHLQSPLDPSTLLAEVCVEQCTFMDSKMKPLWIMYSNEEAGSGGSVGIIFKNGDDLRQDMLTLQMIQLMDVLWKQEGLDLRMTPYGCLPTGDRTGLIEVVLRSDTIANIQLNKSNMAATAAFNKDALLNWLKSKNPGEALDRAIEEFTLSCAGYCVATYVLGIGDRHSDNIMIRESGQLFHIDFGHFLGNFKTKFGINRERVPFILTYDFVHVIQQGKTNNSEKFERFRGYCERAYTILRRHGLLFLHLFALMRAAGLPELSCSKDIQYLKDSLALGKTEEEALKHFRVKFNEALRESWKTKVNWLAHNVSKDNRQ

[10] = biological target: Serine/threonine-protein kinase WNK2 (Homo sapiens) (UniProt Q9Y3S1); test: Inhibition of Wnk2 ATP binding site (GSFKTVYK) in human PBMC at 0.1 uM
Serine/threonine-protein kinase WNK2 (Homo sapiens), sequence (Q9Y3S1 whole entry): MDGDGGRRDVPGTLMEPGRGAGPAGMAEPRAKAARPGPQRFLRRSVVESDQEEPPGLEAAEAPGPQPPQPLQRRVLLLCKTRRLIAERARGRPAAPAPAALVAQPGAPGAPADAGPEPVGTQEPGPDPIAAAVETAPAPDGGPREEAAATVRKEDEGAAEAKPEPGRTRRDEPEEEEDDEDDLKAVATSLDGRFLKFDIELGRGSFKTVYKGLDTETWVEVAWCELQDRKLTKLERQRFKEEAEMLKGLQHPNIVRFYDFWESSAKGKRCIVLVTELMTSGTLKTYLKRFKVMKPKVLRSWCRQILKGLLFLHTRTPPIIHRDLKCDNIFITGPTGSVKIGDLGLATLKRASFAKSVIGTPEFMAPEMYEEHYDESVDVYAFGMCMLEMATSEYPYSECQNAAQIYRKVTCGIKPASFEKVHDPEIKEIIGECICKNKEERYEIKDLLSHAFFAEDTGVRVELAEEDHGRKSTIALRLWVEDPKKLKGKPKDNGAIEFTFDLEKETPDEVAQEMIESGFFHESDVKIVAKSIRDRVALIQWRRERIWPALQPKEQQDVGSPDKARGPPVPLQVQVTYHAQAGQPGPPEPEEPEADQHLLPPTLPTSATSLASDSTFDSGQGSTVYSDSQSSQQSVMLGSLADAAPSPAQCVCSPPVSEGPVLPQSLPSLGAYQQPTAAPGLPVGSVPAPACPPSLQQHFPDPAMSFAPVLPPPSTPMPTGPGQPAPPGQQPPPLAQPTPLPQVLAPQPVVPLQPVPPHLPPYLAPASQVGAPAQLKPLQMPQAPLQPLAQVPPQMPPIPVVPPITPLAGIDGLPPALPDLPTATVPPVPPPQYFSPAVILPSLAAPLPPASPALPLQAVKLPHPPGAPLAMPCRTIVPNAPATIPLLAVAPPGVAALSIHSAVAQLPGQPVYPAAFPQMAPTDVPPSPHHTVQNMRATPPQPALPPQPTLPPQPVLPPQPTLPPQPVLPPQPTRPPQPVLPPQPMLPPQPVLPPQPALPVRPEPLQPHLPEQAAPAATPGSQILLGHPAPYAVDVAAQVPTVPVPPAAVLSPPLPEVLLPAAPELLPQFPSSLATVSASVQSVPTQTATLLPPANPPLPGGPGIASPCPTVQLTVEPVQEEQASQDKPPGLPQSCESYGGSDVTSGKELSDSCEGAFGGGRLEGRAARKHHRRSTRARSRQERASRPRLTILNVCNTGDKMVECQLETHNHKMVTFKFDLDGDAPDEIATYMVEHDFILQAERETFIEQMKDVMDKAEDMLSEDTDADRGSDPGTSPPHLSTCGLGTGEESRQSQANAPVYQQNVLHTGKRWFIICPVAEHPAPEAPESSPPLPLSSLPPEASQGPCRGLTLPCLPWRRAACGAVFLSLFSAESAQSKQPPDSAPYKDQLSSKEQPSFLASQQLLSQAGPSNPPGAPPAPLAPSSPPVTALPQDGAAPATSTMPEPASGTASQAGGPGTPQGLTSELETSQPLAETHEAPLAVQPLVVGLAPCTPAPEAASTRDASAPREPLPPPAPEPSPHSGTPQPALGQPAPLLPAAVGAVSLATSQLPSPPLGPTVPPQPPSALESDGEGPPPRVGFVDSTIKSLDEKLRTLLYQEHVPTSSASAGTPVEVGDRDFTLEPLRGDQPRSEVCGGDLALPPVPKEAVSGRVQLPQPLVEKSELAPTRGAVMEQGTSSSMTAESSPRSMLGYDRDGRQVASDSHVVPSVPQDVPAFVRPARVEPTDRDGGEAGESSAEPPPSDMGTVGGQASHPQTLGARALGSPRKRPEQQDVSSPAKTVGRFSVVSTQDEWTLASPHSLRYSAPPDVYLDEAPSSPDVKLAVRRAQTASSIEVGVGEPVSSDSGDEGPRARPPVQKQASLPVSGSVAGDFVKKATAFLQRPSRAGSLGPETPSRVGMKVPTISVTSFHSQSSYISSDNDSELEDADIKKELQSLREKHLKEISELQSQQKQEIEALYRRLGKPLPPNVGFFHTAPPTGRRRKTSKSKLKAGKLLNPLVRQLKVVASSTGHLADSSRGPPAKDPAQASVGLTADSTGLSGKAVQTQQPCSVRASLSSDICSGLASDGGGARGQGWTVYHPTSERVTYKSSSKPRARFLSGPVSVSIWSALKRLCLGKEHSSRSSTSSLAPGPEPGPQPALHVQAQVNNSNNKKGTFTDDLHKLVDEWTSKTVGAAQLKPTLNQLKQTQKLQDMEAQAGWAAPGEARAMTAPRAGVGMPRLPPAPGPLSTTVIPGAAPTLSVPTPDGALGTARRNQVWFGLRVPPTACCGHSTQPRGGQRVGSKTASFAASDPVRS

Ribosomal protein S6 kinase alpha-2 (Homo sapiens), sequence (Q15349 whole entry, the tested form may be a part): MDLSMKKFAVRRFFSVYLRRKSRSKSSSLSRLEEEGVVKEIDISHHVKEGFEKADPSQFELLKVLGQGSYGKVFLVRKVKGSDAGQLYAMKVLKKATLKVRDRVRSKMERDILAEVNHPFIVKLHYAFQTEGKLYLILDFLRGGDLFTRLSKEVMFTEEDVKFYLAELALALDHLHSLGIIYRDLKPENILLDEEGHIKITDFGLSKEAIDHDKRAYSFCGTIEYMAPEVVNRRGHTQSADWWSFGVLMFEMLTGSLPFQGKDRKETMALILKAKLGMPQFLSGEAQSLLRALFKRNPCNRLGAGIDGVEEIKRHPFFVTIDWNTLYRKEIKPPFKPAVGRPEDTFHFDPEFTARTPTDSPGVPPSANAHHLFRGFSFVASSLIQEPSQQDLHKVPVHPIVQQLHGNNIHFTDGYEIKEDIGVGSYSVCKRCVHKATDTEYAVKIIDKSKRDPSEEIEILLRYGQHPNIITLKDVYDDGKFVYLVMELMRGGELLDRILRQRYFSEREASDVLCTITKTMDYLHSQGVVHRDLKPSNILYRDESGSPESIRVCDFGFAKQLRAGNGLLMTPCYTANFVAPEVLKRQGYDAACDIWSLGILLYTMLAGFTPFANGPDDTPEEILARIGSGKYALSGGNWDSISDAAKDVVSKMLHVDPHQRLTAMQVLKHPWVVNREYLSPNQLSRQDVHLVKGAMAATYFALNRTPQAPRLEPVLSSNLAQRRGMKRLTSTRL
Tyrosine-protein kinase Fyn (Homo sapiens), sequence (P06241 2-537 limits assumed): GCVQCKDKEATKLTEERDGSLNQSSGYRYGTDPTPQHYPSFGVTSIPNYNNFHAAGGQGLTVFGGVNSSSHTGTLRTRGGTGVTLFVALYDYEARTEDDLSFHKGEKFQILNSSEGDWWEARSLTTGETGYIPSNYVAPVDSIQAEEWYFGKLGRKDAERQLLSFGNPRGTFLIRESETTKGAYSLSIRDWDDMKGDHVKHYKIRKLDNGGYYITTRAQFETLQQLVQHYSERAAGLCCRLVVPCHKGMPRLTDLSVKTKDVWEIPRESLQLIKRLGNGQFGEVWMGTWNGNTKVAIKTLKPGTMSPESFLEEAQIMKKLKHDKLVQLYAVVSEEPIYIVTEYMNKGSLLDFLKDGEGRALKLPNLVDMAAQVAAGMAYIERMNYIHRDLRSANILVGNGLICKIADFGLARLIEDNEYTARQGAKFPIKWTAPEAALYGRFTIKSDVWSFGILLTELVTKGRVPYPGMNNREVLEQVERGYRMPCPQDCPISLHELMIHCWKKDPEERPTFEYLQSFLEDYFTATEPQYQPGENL
Mitogen-activated protein kinase kinase kinase 11 (Homo sapiens), sequence (Q16584 whole entry, looked up, the tested form may be a part): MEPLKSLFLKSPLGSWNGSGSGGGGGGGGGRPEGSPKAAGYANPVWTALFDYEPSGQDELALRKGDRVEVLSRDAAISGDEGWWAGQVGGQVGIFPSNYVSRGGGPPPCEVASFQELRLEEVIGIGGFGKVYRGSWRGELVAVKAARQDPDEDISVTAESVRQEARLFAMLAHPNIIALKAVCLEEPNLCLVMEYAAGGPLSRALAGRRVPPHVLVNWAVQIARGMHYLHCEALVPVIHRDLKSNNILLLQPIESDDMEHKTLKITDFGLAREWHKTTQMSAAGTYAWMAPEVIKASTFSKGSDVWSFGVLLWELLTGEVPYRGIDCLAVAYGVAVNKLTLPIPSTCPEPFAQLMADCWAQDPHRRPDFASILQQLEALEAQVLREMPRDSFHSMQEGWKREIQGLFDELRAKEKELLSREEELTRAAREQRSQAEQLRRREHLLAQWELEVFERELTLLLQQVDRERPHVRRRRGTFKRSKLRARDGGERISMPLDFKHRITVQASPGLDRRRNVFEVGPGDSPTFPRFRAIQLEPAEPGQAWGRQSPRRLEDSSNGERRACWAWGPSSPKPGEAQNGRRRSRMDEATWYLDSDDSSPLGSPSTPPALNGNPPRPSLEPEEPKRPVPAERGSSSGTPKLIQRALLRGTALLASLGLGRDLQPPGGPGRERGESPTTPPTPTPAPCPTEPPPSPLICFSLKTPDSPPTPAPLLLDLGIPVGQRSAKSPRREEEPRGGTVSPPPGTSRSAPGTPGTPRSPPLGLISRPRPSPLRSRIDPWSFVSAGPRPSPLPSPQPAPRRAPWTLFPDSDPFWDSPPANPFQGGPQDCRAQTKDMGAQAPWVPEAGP

CC(C)n1cc(-c2cc(-c3ccc(CN4CCOCC4)cc3)cnc2N)nn1 showed an inhibition [1] of 8.3%, an inhibition [2] of -3.3% and an inhibition [3] of -4.4%. It also gave an inhibition [4] of 20.4%, an inhibition [5] of -0.5% and an inhibition [6] of 13.8%. The inhibition [7] was 13%, the inhibition [8] was -6.7% and the inhibition [9] was 4%. The inhibition [10] was 18.3%.
